Test results published in the OligoGym collection.
HELM strings list units from the 5' end as sugar, base in round brackets, then linkage (d deoxyribose, r ribose, m 2'-O-methyl, p phosphodiester). Strings are as the collection lists them; they lack the last nucleoside at the 3' end of the tested compound. [moe] = 2'-O-(2-methoxyethyl) (MOE); [sp] = phosphorothioate linkage; [m5C] = 5-methylcytosine

The substances below were run against SCN2A (assay: mouse, dose not given). Conditions: ASO.
“RNA1{[moe](G)[sp].[moe](A)p.[moe]([m5C])p.[moe]([m5C])p.d(G)[sp].d(T)[sp].d([m5C])[sp].d(T)[sp].d([m5C])[sp].d(T)[sp].d(T)[sp].d(T)[sp].d([m5C])[sp].d(T)[sp].[moe](T)p.[moe](A)p.[moe](T)p.[moe](T)[sp].[moe](T)}$$$$ (last 3' nucleoside missing)” gave a 3 h FOB score of 0 score 0-7. Substance “RNA1{[moe](G)[sp].[moe](G)p.[moe](A)p.[moe](T)p.[moe](A)p.d(G)[sp].d(T)[sp].d(G)[sp].d([m5C])[sp].d(T)[sp].d([m5C])[sp].d([m5C])[sp].d(A)[sp].d(T)[sp].d(A)[sp].[moe](G)p.[moe]([m5C])p.[moe]([m5C])[sp].[moe](A)}$$$$ (last 3' nucleoside missing)” has a 3 h FOB score of 2 score 0-7. For “RNA1{[moe](G)[sp].[moe](G)p.[moe](A)p.[moe]([m5C])p.d([m5C])[sp].d(G)[sp].d(T)[sp].d([m5C])[sp].d(T)[sp].d([m5C])[sp].d(T)[sp].d(T)[sp].d(T)[sp].d([m5C])[sp].[moe](T)p.[moe](T)p.[moe](A)p.[moe](T)[sp].[moe](T)}$$$$ (last 3' nucleoside missing)”, the 3 h FOB score was 1 score 0-7. “RNA1{[moe](G)[sp].[moe](G)p.[moe](G)p.[moe](A)p.[moe](T)p.d(A)[sp].d(G)[sp].d(T)[sp].d(G)[sp].d([m5C])[sp].d(T)[sp].d([m5C])[sp].d([m5C])[sp].d(A)[sp].d(T)[sp].[moe](A)p.[moe](G)p.[moe]([m5C])[sp].[moe]([m5C])}$$$$ (last 3' nucleoside missing)” gave a 3 h FOB score of 1.33 score 0-7. In the case of “RNA1{[moe](G)[sp].[moe](G)p.[moe](T)p.[moe]([m5C])p.[moe](T)p.d([m5C])[sp].d(T)[sp].d(T)[sp].d(A)[sp].d(G)[sp].d([m5C])[sp].d(T)[sp].d(T)[sp].d(T)[sp].d([m5C])[sp].[moe](T)p.[moe]([m5C])p.[moe](T)[sp].[moe](T)}$$$$ (last 3' nucleoside missing)”, the 3 h FOB score is reported as 4 score 0-7. “RNA1{[moe](G)[sp].[moe](T)p.[moe](A)p.[moe](A)p.[moe]([m5C])p.[moe]([m5C])p.d(T)[sp].d(T)[sp].d(T)[sp].d(A)[sp].d(T)[sp].d(A)[sp].d([m5C])[sp].d(A)[sp].d(T)[sp].d(T)[sp].[moe](T)p.[moe](A)[sp].[moe](A)}$$$$ (last 3' nucleoside missing)” gave a 3 h FOB score of 0 score 0-7. For “RNA1{[moe](G)[sp].[moe](T)p.[moe](A)p.[moe](A)p.[moe]([m5C])p.d([m5C])[sp].d(T)[sp].d(T)[sp].d(T)[sp].d(A)[sp].d(T)[sp].d(A)[sp].d([m5C])[sp].d(A)[sp].d(T)[sp].[moe](T)p.[moe](T)p.[moe](A)[sp].[moe](A)}$$$$ (last 3' nucleoside missing)”, the 3 h FOB score was 0.33 score 0-7. “RNA1{[moe](G)[sp].[moe](T)p.[moe](A)p.[moe](A)p.d(T)[sp].d([m5C])[sp].d(A)[sp].d([m5C])[sp].d(T)[sp].d(T)[sp].d(T)[sp].d([m5C])[sp].d(A)[sp].d(T)[sp].[moe]([m5C])p.[moe]([m5C])p.[moe](A)p.[moe]([m5C])[sp].[moe](G)}$$$$ (last 3' nucleoside missing)” gave a 3 h FOB score of 2 score 0-7. In the case of “RNA1{[moe](G)[sp].[moe](T)p.[moe](A)p.[moe](A)p.d([m5C])[sp].d([m5C])[sp].d(T)[sp].d(T)[sp].d(T)[sp].d(A)[sp].d(T)[sp].d(A)[sp].d([m5C])[sp].d(A)[sp].[moe](T)p.[moe](T)p.[moe](T)p.[moe](A)[sp].[moe](A)}$$$$ (last 3' nucleoside missing)”, the 3 h FOB score is reported as 0 score 0-7. For “RNA1{[moe](G)[sp].[moe](T)p.[moe](T)p.[moe](T)p.d(T)[sp].d(T)[sp].d(T)[sp].d([m5C])[sp].d(A)[sp].d(T)[sp].d(T)[sp].d(G)[sp].d([m5C])[sp].d(A)[sp].[moe](T)p.[moe]([m5C])p.[moe]([m5C])p.[moe](T)[sp].[moe]([m5C])}$$$$ (last 3' nucleoside missing)”, the 3 h FOB score was 1 score 0-7. “RNA1{[moe](G)[sp].[moe](T)p.[moe](T)p.[moe]([m5C])p.[moe]([m5C])p.d(A)[sp].d(T)[sp].d(T)[sp].d(A)[sp].d(A)[sp].d(A)[sp].d([m5C])[sp].d(T)[sp].d(A)[sp].d(A)[sp].[moe](G)p.[moe](G)p.[moe]([m5C])[sp].[moe](T)}$$$$ (last 3' nucleoside missing)” was tested, and the 3 h FOB score was 1 score 0-7. For “RNA1{[moe](G)[sp].[moe](T)p.[moe]([m5C])p.[moe](T)p.[moe]([m5C])p.[moe](T)p.d(T)[sp].d(T)[sp].d([m5C])[sp].d(T)[sp].d(T)[sp].d(A)[sp].d(T)[sp].d(T)[sp].d(T)[sp].d([m5C])[sp].[moe](T)p.[moe](G)[sp].[moe](T)}$$$$ (last 3' nucleoside missing)”, the 3 h FOB score was 1 score 0-7. For “RNA1{[moe](G)[sp].[moe](T)p.[moe]([m5C])p.[moe](T)p.[moe]([m5C])p.d(T)[sp].d(T)[sp].d(T)[sp].d([m5C])[sp].d(T)[sp].d(T)[sp].d(A)[sp].d(T)[sp].d(T)[sp].d(T)[sp].[moe]([m5C])p.[moe](T)p.[moe](G)[sp].[moe](T)}$$$$ (last 3' nucleoside missing)”, the 3 h FOB score was 1 score 0-7. “RNA1{[moe](G)[sp].[moe](T)p.[moe]([m5C])p.[moe](T)p.d([m5C])[sp].d(T)[sp].d(T)[sp].d(T)[sp].d([m5C])[sp].d(T)[sp].d(T)[sp].d(A)[sp].d(T)[sp].d(T)[sp].[moe](T)p.[moe]([m5C])p.[moe](T)p.[moe](G)[sp].[moe](T)}$$$$ (last 3' nucleoside missing)” was tested, and the 3 h FOB score was 0 score 0-7. “RNA1{[moe](G)[sp].[moe]([m5C])p.[moe](A)p.[moe](T)[sp].d(G)[sp].d(T)[sp].d(A)[sp].d(A)[sp].d([m5C])[sp].d([m5C])[sp].d(T)[sp].d(T)[sp].[moe](T)p.[moe](A)p.[moe](T)p.[moe](A)[sp].[moe]([m5C])}$$$$ (last 3' nucleoside missing)” gave a 3 h FOB score of 0 score 0-7. Substance “RNA1{[moe](G)[sp].[moe]([m5C])p.[moe](A)p.[moe](T)p.[moe](A)p.[moe](A)p.d(T)[sp].d([m5C])[sp].d([m5C])[sp].d([m5C])[sp].d(A)[sp].d(T)[sp].d(T)[sp].d(A)[sp].d(T)[sp].d(A)[sp].[moe]([m5C])p.[moe](A)[sp].[moe](A)}$$$$ (last 3' nucleoside missing)” has a 3 h FOB score of 0 score 0-7. With “RNA1{[moe](G)[sp].[moe]([m5C])p.[moe](A)p.[moe](T)p.[moe](A)p.d(A)[sp].d(T)[sp].d([m5C])[sp].d([m5C])[sp].d([m5C])[sp].d(A)[sp].d(T)[sp].d(T)[sp].d(A)[sp].d(T)[sp].[moe](A)p.[moe]([m5C])p.[moe](A)[sp].[moe](A)}$$$$ (last 3' nucleoside missing)” the 3 h FOB score was 0.5 score 0-7. For “RNA1{[moe](G)[sp].[moe]([m5C])p.[moe](A)p.[moe](T)p.[moe](G)[sp].d(T)[sp].d(A)[sp].d(A)[sp].d([m5C])[sp].d([m5C])[sp].d(T)[sp].d(T)[sp].d(T)[sp].[moe](A)p.[moe](T)p.[moe](A)[sp].[moe]([m5C])}$$$$ (last 3' nucleoside missing)”, the 3 h FOB score was 0 score 0-7. Substance “RNA1{[moe](G)[sp].[moe]([m5C])p.[moe](A)p.[moe](T)p.[moe](G)p.[moe](T)[sp].d(A)[sp].d(A)[sp].d([m5C])[sp].d([m5C])[sp].d(T)[sp].d(T)[sp].d(T)[sp].d(A)[sp].[moe](T)p.[moe](A)[sp].[moe]([m5C])}$$$$ (last 3' nucleoside missing)” has a 3 h FOB score of 0.33 score 0-7. “RNA1{[moe](G)[sp].[moe]([m5C])p.[moe](A)p.[moe](T)p.[moe](G)p.[moe](T)p.d(A)[sp].d(A)[sp].d([m5C])[sp].d([m5C])[sp].d(T)[sp].d(T)[sp].d(T)[sp].d(A)[sp].d(T)[sp].d(A)[sp].[moe]([m5C])p.[moe](A)[sp].[moe](T)}$$$$ (last 3' nucleoside missing)” showed a 3 h FOB score of 0 score 0-7. “RNA1{[moe](G)[sp].[moe]([m5C])p.[moe](A)p.[moe](T)p.[moe](G)p.[moe](T)p.d(T)[sp].d(T)[sp].d(A)[sp].d(T)[sp].d([m5C])[sp].d(T)[sp].d(T)[sp].d(A)[sp].d(G)[sp].d(T)[sp].[moe](T)p.[moe]([m5C])[sp].[moe](T)}$$$$ (last 3' nucleoside missing)” showed a 3 h FOB score of 1.67 score 0-7. With “RNA1{[moe](G)[sp].[moe]([m5C])p.[moe](A)p.[moe](T)p.[moe](G)p.d(T)[sp].d(A)[sp].d(A)[sp].d([m5C])[sp].d([m5C])[sp].d(T)[sp].d(T)[sp].d(T)[sp].d(A)[sp].d(T)[sp].[moe](A)p.[moe]([m5C])p.[moe](A)[sp].[moe](T)}$$$$ (last 3' nucleoside missing)” the 3 h FOB score was 0 score 0-7. “RNA1{[moe](G)[sp].[moe]([m5C])p.[moe](A)p.[moe](T)p.[moe](G)p.d(T)[sp].d(T)[sp].d(T)[sp].d(A)[sp].d(T)[sp].d([m5C])[sp].d(T)[sp].d(T)[sp].d(A)[sp].d(G)[sp].[moe](T)p.[moe](T)p.[moe]([m5C])[sp].[moe](T)}$$$$ (last 3' nucleoside missing)” showed a 3 h FOB score of 1 score 0-7. Work on “RNA1{[moe](G)[sp].[moe]([m5C])p.[moe](A)p.[moe](T)p.d(A)[sp].d(A)[sp].d(T)[sp].d([m5C])[sp].d([m5C])[sp].d([m5C])[sp].d(A)[sp].d(T)[sp].d(T)[sp].d(A)[sp].[moe](T)p.[moe](A)p.[moe]([m5C])p.[moe](A)[sp].[moe](A)}$$$$ (last 3' nucleoside missing)” yielded a 3 h FOB score of 0 score 0-7. With “RNA1{[moe](G)[sp].[moe]([m5C])p.[moe](A)p.[moe](T)p.d(A)[sp].d(T)[sp].d(T)[sp].d([m5C])[sp].d(T)[sp].d(A)[sp].d(A)[sp].d([m5C])[sp].d(A)[sp].d(T)[sp].[moe](G)p.[moe](G)p.[moe](T)p.[moe]([m5C])[sp].[moe](T)}$$$$ (last 3' nucleoside missing)” the 3 h FOB score was 1.67 score 0-7. Substance “RNA1{[moe](G)[sp].[moe]([m5C])p.[moe](A)p.[moe](T)p.d(G)[sp].d(T)[sp].d(A)[sp].d(A)[sp].d([m5C])[sp].d([m5C])[sp].d(T)[sp].d(T)[sp].d(T)[sp].d(A)[sp].[moe](T)p.[moe](A)p.[moe]([m5C])p.[moe](A)[sp].[moe](T)}$$$$ (last 3' nucleoside missing)” has a 3 h FOB score of 0 score 0-7.
